Experimental data: PubChem BioAssay (NCI)
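Following 48 hours of exposure in 96-well plates, responses at five concentrations were used to interpolate endpoints linearly. Here, GI50 denotes the concentration required for 50% inhibition of growth. TGI marks complete inhibition of growth.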

Experiments:
Experiment in all cases: DTP human tumour cell line panel, 48 h
HCC-2998 colon = tested on: HCC-2998 colon
UO-31 renal = tested on: UO-31 renal
SR leukemia = tested on: SR leukemia
U251 CNS = tested on: U251 CNS
CAKI-1 renal = tested on: CAKI-1 renal
A498 renal = tested on: A498 renal
BT-549 breast = tested on: BT-549 breast
SK-MEL-28 melanoma = tested on: SK-MEL-28 melanoma
COLO 205 colon = tested on: COLO 205 colon
NCI-H23 lung = tested on: NCI-H23 lung

Structure (SMILES) | TGI (HCC-2998 colon) [µM] | TGI (UO-31 renal) [µM] | TGI (SR leukemia) [µM] | TGI (U251 CNS) [µM] | TGI (CAKI-1 renal) [µM] | TGI (A498 renal) [µM] | TGI (BT-549 breast) [µM] | TGI (SK-MEL-28 melanoma) [µM] | TGI (COLO 205 colon) [µM] | TGI (NCI-H23 lung) [µM] | GI50 (HCC-2998 colon) [µM] | GI50 (UO-31 renal) [µM] | GI50 (SR leukemia) [µM] | GI50 (U251 CNS) [µM] | GI50 (CAKI-1 renal) [µM] | GI50 (A498 renal) [µM] | GI50 (BT-549 breast) [µM] | GI50 (SK-MEL-28 melanoma) [µM] | GI50 (COLO 205 colon) [µM]
COc1cccc(-c2[nH]c3cc4c(cc3c(=O)c2C(=O)O)OCO4)c1 | 74.6 | > 100 | > 100 | > 100 | > 100 | 91.6 | > 100 | > 100 | 74.9 | > 100 | – | – | – | – | – | – | – | – | –
Cn1c(=O)n2n(c1=O)C(S(=O)c1ccccc1)C2 (configuration not stated) | > 100 | > 100 | > 100 | > 100 | > 100 | – | > 100 | > 100 | > 100 | > 100 | – | – | – | – | – | – | – | – | –
Nc1nc2c(c(=O)[nH]1)NC(CCNc1ccc(C(=O)O)cc1)CN2 (configuration not stated) | – | > 100 | > 100 | > 100 | > 100 | > 100 | > 100 | > 100 | > 100 | > 100 | – | – | – | – | – | – | – | – | –
COc1ccc(/C=N/n2c(Cc3ccccc3)n[nH]c2=O)cc1 | > 100 | > 100 | – | > 100 | > 100 | > 100 | > 100 | > 100 | > 100 | > 100 | – | – | – | – | – | – | – | – | –
C/C(=N\Nc1nc2ccccc2n1C)c1ccc2ccccc2n1 | 0.9 | 11.8 | 3.73 | > 43.6 | 4.51 | 15.6 | > 59.6 | 37.3 | > 100 | 31 | – | – | – | – | – | – | – | – | –
Cc1cc(C)nc(NC(=S)Nc2ccc(Cl)cc2)c1 | – | > 100 | > 100 | > 100 | > 100 | > 100 | > 100 | > 100 | > 100 | – | – | – | – | – | – | – | – | – | –
CSC1(Cc2ccccn2)C(=O)Nc2cccc([N+](=O)[O-])c21 (configuration not stated) | > 100 | > 100 | > 100 | > 100 | > 100 | – | > 100 | > 100 | > 100 | > 100 | – | – | – | – | – | – | – | – | –
CC(C)(CC1(C)NC(=O)NC1=O)OCc1ccccc1 (configuration not stated) | > 100 | > 100 | > 100 | > 100 | > 100 | > 100 | > 100 | > 100 | – | > 100 | – | – | – | – | – | – | – | – | –
Nc1ncc(Sc2ccccc2C(=O)O)s1 | – | > 100 | > 100 | > 100 | > 100 | > 100 | > 100 | > 100 | > 100 | > 100 | – | – | – | – | – | – | – | – | –
CCOc1cc(/C=C/C(=O)CC(=O)/C=C/c2ccc(OC(=O)CNCCN(CC)CC)c(OCC)c2)ccc1OC(=O)CNCCN(CC)CC | 3.19 | 3.82 | 1.63 | 2.82 | 6.74 | 3.85 | 3.52 | 4.56 | 4.58 | – | 1.65 | 1.7 | 0.313 | 1.27 | 2.12 | 2.02 | 1.45 | 1.96 | 1.88
CC(=O)Nc1sccc1S(=O)(=O)c1ccc(Cl)cc1 | > 100 | > 100 | > 100 | > 100 | > 100 | – | > 100 | > 100 | > 100 | > 100 | – | – | – | – | – | – | – | – | –
COc1cccc(N2C(=O)C3CC(CC(C)(C)C)c4c([nH]c5ccccc45)C3C2=O)c1 (configuration not stated) | > 10 | – | 4.2 | > 10 | > 10 | > 10 | > 10 | > 10 | > 10 | > 10 | – | – | – | – | – | – | – | – | –
Nc1ncnc2c1N=C(c1ccccc1)CC(c1ccccc1)N2 (configuration not stated) | > 100 | > 100 | > 100 | > 100 | > 100 | – | > 100 | > 100 | > 100 | > 100 | – | – | – | – | – | – | – | – | –
CCOC(=O)[C@@H]1C[C@@H]1c1ccc(O)c(O)c1 | 67.7 | 60.9 | > 100 | > 100 | > 100 | – | 75.9 | > 100 | > 100 | > 100 | – | – | – | – | – | – | – | – | –
CC1=CC(=O)c2c(O)c3c(c(O)c2C1=O)C1C(O)C(C3=O)C23C(=O)c4c(O)c(C)cc(O)c4C(O)=C2C(=O)CC(O)C13 (configuration not stated) | 10.2 | – | 6.52 | 15.9 | 3.57 | 3.37 | 17.9 | 6.78 | 4.76 | 14.1 | – | – | – | – | – | – | – | – | –
CC1=C2CC(C)(C)CC(=O)C2(C)CCC1=O (configuration not stated) | > 100 | > 100 | > 100 | > 100 | > 100 | – | > 100 | > 100 | > 100 | > 100 | – | – | – | – | – | – | – | – | –
COc1ccc2c(C(=O)c3c(C)n(CCN4CCOCC4)c4ccccc34)cccc2c1 | – | > 100 | > 100 | 52.2 | > 100 | > 100 | 98.1 | > 100 | 43.4 | > 100 | – | – | – | – | – | – | – | – | –
Cc1cc(NS(=O)(=O)c2ccc(NC(=O)c3ccc4nc5ccccc5c(Nc5ccc(S(=O)(=O)Nc6cc(C)on6)cc5)c4c3)cc2)no1 | > 50 | > 50 | > 50 | > 50 | > 50 | – | > 50 | > 50 | > 50 | > 50 | – | – | – | – | – | – | – | – | –
CC1=NNC(=O)[C@H]2[C@H]1CCC1[C@@H]2CC[C@]2(C)[C@@H](O)CC[C@@H]12 (some centres not stated) | > 100 | > 100 | – | > 100 | > 100 | > 100 | > 100 | > 100 | > 100 | > 100 | – | – | – | – | – | – | – | – | –
CCCCOc1ccc(S(=O)(=O)/N=C(\N)Nc2ccc(Cl)cc2)cc1 | – | 34.8 | 28.7 | 28 | – | 24.6 | 32.5 | 32 | > 100 | 29.9 | – | – | – | – | – | – | – | – | –
CO[C@]12C[C@@H](CNC(=O)c3cc(Br)c[nH]3)O[C@H]1NC(=O)N2 | > 100 | > 100 | – | > 100 | > 100 | > 100 | > 100 | > 100 | > 100 | > 100 | – | – | – | – | – | – | – | – | –
O=C1c2ccccc2-n2c1nc1ccc(Cl)cc1c2=O | > 100 | > 100 | > 100 | > 100 | > 100 | > 100 | > 100 | – | > 100 | > 100 | – | – | – | – | – | – | – | – | –
